The supplement of paper PMC10307832

What was measured:
Test in all cases: relative viability (nuclei count vs DMSO), 5 days (fraction); higher = more cells survive
Sunitinib + Pemetrexed = compound: CCN(CC)CCNC(=O)c1c(C)[nH]c(/C=C2\C(=O)Nc3ccc(F)cc32)c1C [Sunitinib] + Nc1nc2[nH]cc(CCc3ccc(C(=O)N[C@@H](CCC(=O)O)C(=O)O)cc3)c2c(=O)[nH]1 [Pemetrexed] (partner 0.2 µM)
In short: (§1)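 Lung cancer cell lines were seeded in 1536-well plates and dosed by pin tool the next day, with either a single drug or a fixed anchor-drug dose combined with five library-drug doses (not always all listed) spaced in √10 steps. Five days later, one step fixed the cells and stained their nuclei (final 0.05% Triton X-100, 1% formaldehyde, 1 ug/ml Hoechst), and nuclei were counted on 4× images. Relative viability is the nuclei count in treated wells divided by the count in vehicle wells, and each value is the median of duplicate plates.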

Sunitinib + AZD7762 = compound: CCN(CC)CCNC(=O)c1c(C)[nH]c(/C=C2\C(=O)Nc3ccc(F)cc32)c1C [Sunitinib] + NC(=O)Nc1cc(-c2cccc(F)c2)sc1C(=O)N[C@H]1CCCNC1 [AZD7762] (partner 0.2 µM)
In short: as §1

Sunitinib + OSI-027 = compound: CCN(CC)CCNC(=O)c1c(C)[nH]c(/C=C2\C(=O)Nc3ccc(F)cc32)c1C [Sunitinib] + COc1cccc2cc(-c3nc([C@H]4CC[C@H](C(=O)O)CC4)n4ncnc(N)c34)[nH]c12 [OSI-027] (partner 0.5 µM)
In short: as §1

Sunitinib + Foretinib = compound: CCN(CC)CCNC(=O)c1c(C)[nH]c(/C=C2\C(=O)Nc3ccc(F)cc32)c1C [Sunitinib] + COc1cc2c(Oc3ccc(NC(=O)C4(C(=O)Nc5ccc(F)cc5)CC4)cc3F)ccnc2cc1OCCCN1CCOCC1 [Foretinib] (partner 0.25 µM)
In short: as §1

Cell Line | relative viability (Sunitinib + Pemetrexed; first compound 0.02 µM) | relative viability (Sunitinib + Pemetrexed; first compound 0.06325 µM) | relative viability (Sunitinib + Pemetrexed; first compound 0.2 µM) | relative viability (Sunitinib + Pemetrexed; first compound 0.6325 µM) | relative viability (Sunitinib + Pemetrexed; first compound 2 µM) | relative viability (Sunitinib + AZD7762; first compound 0.02 µM) | relative viability (Sunitinib + AZD7762; first compound 0.06325 µM) | relative viability (Sunitinib + AZD7762; first compound 0.2 µM) | relative viability (Sunitinib + AZD7762; first compound 0.6325 µM) | relative viability (Sunitinib + AZD7762; first compound 2 µM) | relative viability (Sunitinib + OSI-027; first compound 0.02 µM) | relative viability (Sunitinib + OSI-027; first compound 0.06325 µM) | relative viability (Sunitinib + OSI-027; first compound 0.2 µM) | relative viability (Sunitinib + OSI-027; first compound 0.6325 µM) | relative viability (Sunitinib + OSI-027; first compound 2 µM) | relative viability (Sunitinib + Foretinib; first compound 0.02 µM) | relative viability (Sunitinib + Foretinib; first compound 0.06325 µM) | relative viability (Sunitinib + Foretinib; first compound 0.2 µM) | relative viability (Sunitinib + Foretinib; first compound 0.6325 µM) | relative viability (Sunitinib + Foretinib; first compound 2 µM)
NCI-H650 | 0.877 | 0.958 | 0.914 | 1.05 | 1.01 | 0.882 | 1.15 | 0.945 | 1.1 | 0.944 | 0.535 | 0.553 | 0.524 | 0.586 | 0.514 | 1.03 | 1.01 | 1.06 | 1.11 | 0.975
NCI-H1395 | 0.845 | 0.937 | 0.935 | 1.1 | 0.91 | 0.422 | 0.431 | 0.413 | 0.418 | 0.421 | 0.648 | 0.701 | 0.632 | 0.739 | 0.697 | 0.955 | 0.996 | 1.05 | 1 | 1.14
NCI-H358 | 0.178 | 0.181 | 0.177 | 0.177 | 0.167 | 0.59 | 0.596 | 0.637 | 0.427 | 0.449 | 0.685 | 0.814 | 0.878 | 0.691 | 0.38 | 0.716 | 0.774 | 0.8 | 0.748 | 0.527
NCI-H2087 | 0.711 | 0.693 | 0.559 | 0.626 | 0.693 | 1.21 | 1.42 | 1.34 | 1.41 | 1.46 | 0.423 | 0.755 | 0.636 | 0.577 | 0.449 | 1.12 | 1.28 | 1.15 | 1.07 | 1.11
